The text below walks through data of patent publication US20080248040A1, “Nucleic Acid Molecules Encoding Novel Human Low-Voltage Activated Calcium Channel Proteins, Designed-Alpha 1I-1 and Alpha 1I-2, Encoded Proteins and Methods of Use Thereof” (priority 2003, published 2008).

Assay [1] addresses T1, human calcium channel α1I subunit (α1I channel) (Homo sapiens, UniProt Q9P0X4, I1040V).
T1 construct: expressed in transfected cells
Put plainly: Calcium influx measured by FLIPR in B21 cells. Format: cell-based. To be noted: for IC50: B21 cell induced by 0.1 uM tetracycline, mean ± S.E., n=3, read-out: IC50 for inhibition of calcium influx. The method, then:
Intracellular calcium concentration was monitored by the FLIPR™ technique (Molecular Devices, Sunnyvale, Calif.). Briefly, the cells were seeded into black 96 well plates with clear bottoms at a density of 35,000 cells/well and cultured for 5 hr.

Assay [2] deals with α1I T-type calcium channel (Homo sapiens, UniProt Q9P0X4, I1040V). Briefly: Whole-cell patch clamp (voltage-clamp) recordings on the B21 cell line.
α1I T-type calcium channel, sequence (Q9P0X4 1-1981 isoform Q9P0X4-3 I1005V): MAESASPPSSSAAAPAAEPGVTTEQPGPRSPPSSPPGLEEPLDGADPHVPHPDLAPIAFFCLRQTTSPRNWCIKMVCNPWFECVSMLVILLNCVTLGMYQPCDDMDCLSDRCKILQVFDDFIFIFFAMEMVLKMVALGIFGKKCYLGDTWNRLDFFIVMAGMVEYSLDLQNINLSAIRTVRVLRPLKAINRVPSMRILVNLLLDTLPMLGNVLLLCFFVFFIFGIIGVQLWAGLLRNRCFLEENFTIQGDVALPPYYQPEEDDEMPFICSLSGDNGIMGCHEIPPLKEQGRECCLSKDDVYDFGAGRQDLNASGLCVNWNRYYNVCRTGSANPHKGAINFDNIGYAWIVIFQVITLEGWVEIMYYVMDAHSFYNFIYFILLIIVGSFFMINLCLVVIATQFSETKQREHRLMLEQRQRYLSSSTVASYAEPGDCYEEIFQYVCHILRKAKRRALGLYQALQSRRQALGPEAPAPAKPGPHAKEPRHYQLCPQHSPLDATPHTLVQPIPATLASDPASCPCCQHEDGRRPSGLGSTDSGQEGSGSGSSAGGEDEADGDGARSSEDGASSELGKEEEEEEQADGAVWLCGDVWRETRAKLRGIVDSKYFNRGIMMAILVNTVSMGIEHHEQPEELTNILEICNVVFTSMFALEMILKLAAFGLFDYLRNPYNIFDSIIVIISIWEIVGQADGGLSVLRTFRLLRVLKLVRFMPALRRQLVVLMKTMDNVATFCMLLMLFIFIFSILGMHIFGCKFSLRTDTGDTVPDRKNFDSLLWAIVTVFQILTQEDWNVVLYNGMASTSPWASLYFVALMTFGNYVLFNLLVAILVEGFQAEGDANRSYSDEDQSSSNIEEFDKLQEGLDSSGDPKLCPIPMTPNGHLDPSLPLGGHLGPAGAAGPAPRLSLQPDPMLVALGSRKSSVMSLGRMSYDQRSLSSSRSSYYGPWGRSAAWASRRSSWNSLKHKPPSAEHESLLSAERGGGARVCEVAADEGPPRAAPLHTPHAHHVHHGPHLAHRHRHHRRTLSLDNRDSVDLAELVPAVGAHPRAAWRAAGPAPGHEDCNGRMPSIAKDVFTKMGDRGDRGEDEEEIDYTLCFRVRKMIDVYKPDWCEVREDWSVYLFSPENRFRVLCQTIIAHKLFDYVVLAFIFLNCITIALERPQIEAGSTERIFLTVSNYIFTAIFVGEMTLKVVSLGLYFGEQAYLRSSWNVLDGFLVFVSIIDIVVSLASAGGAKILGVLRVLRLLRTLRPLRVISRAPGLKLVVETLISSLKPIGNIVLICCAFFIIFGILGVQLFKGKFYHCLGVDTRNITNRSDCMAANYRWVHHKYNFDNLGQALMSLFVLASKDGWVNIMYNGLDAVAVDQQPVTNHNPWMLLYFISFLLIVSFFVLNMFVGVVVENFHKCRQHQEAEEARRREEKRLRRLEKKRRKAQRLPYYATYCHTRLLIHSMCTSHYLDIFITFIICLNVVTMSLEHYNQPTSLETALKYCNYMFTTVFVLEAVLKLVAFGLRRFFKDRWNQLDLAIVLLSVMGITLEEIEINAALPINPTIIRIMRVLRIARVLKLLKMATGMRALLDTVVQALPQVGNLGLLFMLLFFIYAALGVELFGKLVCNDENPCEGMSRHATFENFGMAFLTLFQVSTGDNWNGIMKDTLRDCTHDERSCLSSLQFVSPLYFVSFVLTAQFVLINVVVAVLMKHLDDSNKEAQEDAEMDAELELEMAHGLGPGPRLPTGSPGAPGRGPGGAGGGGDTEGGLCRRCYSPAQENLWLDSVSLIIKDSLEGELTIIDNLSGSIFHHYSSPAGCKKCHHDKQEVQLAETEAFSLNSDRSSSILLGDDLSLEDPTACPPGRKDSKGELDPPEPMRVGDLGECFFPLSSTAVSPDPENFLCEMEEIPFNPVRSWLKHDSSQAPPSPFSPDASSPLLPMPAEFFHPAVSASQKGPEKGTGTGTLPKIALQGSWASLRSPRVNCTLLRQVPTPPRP
Assay [3] relates to T-type currents in thalamic (ventrobasal complex) neurons. To be noted: physiologically relevant doses; Coulter et al. 1989; cited from earlier work.
The test system of assay [4] is T-type Ca^2+ current in DRG neurons. The note with it: freshly dissected DRG neurons of adult rats; Todorovic and Lingle 1998; cited from earlier work.

T1 sequence (Q9P0X4 1-1981 isoform Q9P0X4-3 I1005V): as above

Regarding `[Ca+2]` [Ca^2+], the EC50 in assay [1] (B21 cells induced by 0.1 μM tetracycline, read-out: EC50 of Ca^2+ influx after Ca^2+ addition) was 1000 µM. As to `COCCOC(=O)C1=C(C)NC(C)=C(C(=O)OC(C)C)C1c1cccc([N+](=O)[O-])c1` (centres unmarked) [Nimodipine], the IC50 in assay [1] worked out at 9.51 ± 0.788 µM.

Take `O=c1[nH]c2ccccc2n1C1CCN(CCCC(c2ccc(F)cc2)c2ccc(F)cc2)CC1` [Pimozide]: in assay [1], the IC50 was 1 ± 0.109 µM. For the same compound, in assay [2] (100 nM antagonist, −100 mV holding potential), the “% Inhibition (Ave ± SEM) of peak calcium current” value is given as 32 ± 2%. Besides, the potency estimated from few doses in assay [2] (read-out: Est IC50) was 0.216 µM.

Consider `CC1(C)OC(=O)NC1=O` [dimethadione], for which, in assay [3], the “effect on T-type currents in thalamic neurons (in words)” value is recorded as “partially depress”. In the case of `CCC1(C)CC(=O)NC1=O` (centres unmarked) [ethosuximide], the “effect on T-type currents in thalamic neurons (in words)” value in assay [3] is “partially depress”. The “effect on T-type Ca^2+ current in DRG neurons (in words)” value in assay [4] was “fully block”.
